Tests used:
Wnt signaling = test: TOPFlash (Wnt) reporter assay in stable HEK293T cell line; format: cell-based; conditions: for Percent inhibition at 1 μM: Table 3, Wnt reporter assay at 1 μM
Text: Wnt signaling is a key target for multiple human cancers, including but not limited to colon cancer, liver cancer, and lung cancer. To identify novel Wnt regulators by high throughput screening, a stable HEK293T cell line containing the TOPFlash reporter was established. Since β-catenin is often activated by mutations in the Wnt pathway, it is important to inhibit Wnt signaling downstream of β-catenin activity. Therefore, the screen was specifically designed to identify Wnt inhibitors that target events downstream of β-catenin. The Wnt signaling was activated by treating cells with lithium chloride to inhibit GSK3 and to stabilize β-catenin, mimicking the constitutively active Wnt signaling in cancer cells. Through this screen, a family of novel Wnt inhibitors that inhibited Wnt signaling at a 0.5-10 μM concentrations (Table 1) was identified.
After 6 h, the cells were treated with 25 mM LiCl to activate Wnt signaling. The inhibition ratio of each compound was determined (Table 1).
For the SAR studies, 58B1 (VMS-7-133) was re-synthesized. Additionally, SD70, a commercial KDM4 inhibitor, was both purchased and re-synthesized (VMS-7-175). […] VMS-7-195 is a biotinylated analog of 58B1. […] Specific KDM inhibitors may be used to target specific KDMs, such as KDM3A, which is highly expressed in many human cancers.
Identification of a CBA-1 as a novel Wnt inhibitor. The present inventors routinely use TOPFlash reporter assay for Wnt inhibitor screening. To mimic the constitutively active Wnt signaling found in CRC cells, Wnt signaling was activated by inhibiting GSK3 and stabilizing β-catenin. From screening in house small-molecule libraries, CBA-1 (FIG. 4) was identified that inhibited Wnt signaling in TOPFlash reporter assay. To validate the screening results, CBA-1 was tested in CRC cells.

Jarid1B (KDM5B) = Jarid1B (KDM5B) (Homo sapiens, UniProt Q9UGL1); test: Histone demethylase assay, purified enzyme panel; format: biochemical; conditions: Reference inhibitor
Chain of Jarid1B (KDM5B) (Q9UGL1 whole entry): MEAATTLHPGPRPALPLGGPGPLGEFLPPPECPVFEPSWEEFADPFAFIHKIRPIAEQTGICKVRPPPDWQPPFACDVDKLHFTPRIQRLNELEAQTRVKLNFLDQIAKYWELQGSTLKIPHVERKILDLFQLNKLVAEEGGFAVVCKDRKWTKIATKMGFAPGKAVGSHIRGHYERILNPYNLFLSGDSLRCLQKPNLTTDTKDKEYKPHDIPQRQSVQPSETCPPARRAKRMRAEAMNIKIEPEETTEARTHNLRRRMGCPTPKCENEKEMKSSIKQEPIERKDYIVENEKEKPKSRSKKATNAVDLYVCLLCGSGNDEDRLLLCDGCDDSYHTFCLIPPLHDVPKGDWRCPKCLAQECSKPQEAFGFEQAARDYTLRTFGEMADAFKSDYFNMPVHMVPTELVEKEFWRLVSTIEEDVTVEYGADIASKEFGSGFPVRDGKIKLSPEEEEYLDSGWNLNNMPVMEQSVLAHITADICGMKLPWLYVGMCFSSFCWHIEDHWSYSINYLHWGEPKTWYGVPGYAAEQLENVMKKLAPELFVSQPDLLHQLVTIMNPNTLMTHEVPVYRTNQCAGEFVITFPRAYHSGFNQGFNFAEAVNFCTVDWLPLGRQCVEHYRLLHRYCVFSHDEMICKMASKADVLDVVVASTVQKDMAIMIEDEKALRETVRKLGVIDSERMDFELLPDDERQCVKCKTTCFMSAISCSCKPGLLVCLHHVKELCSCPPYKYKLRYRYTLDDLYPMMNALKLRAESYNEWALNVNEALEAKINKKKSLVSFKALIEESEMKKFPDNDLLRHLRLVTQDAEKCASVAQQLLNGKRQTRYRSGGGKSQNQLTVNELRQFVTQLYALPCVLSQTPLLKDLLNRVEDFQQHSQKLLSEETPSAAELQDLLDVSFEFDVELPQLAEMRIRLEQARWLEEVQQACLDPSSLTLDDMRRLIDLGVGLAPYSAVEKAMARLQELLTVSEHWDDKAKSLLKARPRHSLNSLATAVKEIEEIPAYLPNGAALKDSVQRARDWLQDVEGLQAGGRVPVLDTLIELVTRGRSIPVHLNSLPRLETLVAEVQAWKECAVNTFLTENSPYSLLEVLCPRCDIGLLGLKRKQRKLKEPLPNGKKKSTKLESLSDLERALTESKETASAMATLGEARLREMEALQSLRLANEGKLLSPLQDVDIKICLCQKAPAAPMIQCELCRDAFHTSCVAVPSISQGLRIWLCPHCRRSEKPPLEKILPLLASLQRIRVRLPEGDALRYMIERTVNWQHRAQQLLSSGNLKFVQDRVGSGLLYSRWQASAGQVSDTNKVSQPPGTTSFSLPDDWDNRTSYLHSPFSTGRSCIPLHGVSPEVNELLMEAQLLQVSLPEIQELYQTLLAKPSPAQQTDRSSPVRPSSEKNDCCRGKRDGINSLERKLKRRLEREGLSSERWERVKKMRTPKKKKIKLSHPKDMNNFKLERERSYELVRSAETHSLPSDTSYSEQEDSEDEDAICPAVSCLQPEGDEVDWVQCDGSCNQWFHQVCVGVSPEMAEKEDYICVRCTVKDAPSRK
Text: (§1) Histone Demethylase Assay
(§2) To further examine the effects of 58B1 on histone demethylase, we screened a panel of purified histone demethylases was screened.

UTX (KDM6A) = UTX (KDM6A) (Homo sapiens, UniProt O15550); test: Histone demethylase assay, purified enzyme panel; format: biochemical; conditions: Reference inhibitor
Chain of UTX (KDM6A) (O15550 whole entry): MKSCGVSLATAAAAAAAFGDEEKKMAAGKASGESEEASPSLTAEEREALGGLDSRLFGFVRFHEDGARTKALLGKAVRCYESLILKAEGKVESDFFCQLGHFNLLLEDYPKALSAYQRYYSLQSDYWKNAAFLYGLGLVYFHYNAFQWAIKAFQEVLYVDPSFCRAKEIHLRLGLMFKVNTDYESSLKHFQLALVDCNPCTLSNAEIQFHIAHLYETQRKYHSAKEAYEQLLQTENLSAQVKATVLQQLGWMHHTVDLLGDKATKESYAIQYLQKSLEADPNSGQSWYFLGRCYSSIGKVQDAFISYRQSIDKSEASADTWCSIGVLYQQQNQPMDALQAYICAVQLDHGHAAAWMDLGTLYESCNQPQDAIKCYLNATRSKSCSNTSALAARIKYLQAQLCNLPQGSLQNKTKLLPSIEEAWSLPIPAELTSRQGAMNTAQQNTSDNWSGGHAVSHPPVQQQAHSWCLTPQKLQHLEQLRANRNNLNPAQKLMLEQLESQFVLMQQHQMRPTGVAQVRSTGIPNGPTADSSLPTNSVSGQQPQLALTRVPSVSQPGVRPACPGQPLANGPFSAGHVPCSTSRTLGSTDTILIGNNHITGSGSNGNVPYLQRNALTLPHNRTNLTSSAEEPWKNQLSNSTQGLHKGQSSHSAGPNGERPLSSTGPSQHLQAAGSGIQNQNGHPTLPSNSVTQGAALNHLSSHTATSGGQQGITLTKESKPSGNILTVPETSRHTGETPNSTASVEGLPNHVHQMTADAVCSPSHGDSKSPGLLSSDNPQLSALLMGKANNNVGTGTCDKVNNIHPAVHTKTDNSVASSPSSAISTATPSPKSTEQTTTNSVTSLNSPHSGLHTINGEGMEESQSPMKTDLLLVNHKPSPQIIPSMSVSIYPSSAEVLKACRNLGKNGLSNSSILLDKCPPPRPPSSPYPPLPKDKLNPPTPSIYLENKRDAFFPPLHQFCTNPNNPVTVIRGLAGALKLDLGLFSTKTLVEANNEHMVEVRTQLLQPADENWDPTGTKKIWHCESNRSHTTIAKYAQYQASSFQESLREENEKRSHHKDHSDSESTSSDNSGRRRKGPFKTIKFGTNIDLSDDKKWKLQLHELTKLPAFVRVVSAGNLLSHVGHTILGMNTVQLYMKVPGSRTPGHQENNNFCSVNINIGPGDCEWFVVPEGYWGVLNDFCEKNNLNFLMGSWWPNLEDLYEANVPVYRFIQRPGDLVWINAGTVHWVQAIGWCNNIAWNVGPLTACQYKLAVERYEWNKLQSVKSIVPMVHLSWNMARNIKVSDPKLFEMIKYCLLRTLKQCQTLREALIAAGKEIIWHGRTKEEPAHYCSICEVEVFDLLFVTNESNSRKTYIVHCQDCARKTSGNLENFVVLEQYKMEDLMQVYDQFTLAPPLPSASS
Text: as §1, §2

JMJD1A (KDM3A) = target: T1, JMJD1A (KDM3A) (Homo sapiens, UniProt Q9Y4C1); test: Histone demethylase assay / KDM3A enzymatic activity in vitro; format: biochemical; conditions: for enzymatic activity of KDM3A: FIG. 12C
T1 sequence (Q9Y4C1 1-1321): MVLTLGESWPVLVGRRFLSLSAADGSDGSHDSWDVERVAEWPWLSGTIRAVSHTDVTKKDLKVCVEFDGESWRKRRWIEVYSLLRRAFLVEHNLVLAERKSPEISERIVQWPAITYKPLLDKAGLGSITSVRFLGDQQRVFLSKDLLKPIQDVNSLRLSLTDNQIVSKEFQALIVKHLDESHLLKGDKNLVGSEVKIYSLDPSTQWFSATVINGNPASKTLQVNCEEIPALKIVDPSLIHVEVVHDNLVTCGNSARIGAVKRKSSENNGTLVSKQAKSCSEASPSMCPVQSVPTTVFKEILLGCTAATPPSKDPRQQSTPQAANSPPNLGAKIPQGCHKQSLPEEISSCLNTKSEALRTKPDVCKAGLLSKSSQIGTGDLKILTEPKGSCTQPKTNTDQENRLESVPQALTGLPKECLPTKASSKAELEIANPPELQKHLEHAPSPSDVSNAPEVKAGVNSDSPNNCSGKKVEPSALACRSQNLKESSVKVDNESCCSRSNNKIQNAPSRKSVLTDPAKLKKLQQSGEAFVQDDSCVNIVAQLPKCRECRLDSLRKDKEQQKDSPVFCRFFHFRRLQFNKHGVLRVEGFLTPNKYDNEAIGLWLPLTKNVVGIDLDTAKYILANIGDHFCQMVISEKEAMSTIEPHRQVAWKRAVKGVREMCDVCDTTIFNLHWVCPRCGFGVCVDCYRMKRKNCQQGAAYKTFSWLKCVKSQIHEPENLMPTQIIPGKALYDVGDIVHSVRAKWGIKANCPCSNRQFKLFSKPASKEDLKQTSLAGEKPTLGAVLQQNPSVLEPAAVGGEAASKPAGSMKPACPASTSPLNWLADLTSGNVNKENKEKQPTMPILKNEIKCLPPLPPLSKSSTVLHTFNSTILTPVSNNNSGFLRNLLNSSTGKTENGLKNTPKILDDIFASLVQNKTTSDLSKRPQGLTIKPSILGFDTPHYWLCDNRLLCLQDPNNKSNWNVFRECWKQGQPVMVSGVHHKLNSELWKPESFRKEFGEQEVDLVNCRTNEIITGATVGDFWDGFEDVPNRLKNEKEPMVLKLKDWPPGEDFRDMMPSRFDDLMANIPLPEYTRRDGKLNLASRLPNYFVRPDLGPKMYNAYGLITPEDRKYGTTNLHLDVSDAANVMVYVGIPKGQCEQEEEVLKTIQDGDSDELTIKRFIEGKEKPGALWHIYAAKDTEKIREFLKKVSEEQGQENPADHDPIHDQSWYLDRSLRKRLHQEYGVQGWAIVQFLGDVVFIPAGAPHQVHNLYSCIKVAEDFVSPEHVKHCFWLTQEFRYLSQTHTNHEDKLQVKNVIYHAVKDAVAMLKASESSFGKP
Text: as §1, §2
Identification of KDM3A as a target of CBA-1. KDM3A regulated H3K9Me^2 and underwent significant upregulation in CRC. To test if CBA-1 targeted KDM3A, a biotinylated analog CBA-B2 (FIG. 7A) was synthesized. […] Knocking-down KDM3A by shRNA inhibited cell proliferation (FIG. 7D) and Wnt target gene expression in LS174T CRC cells (FIG. 7E).
(§3) Repurposing drugs as CBA-1 analogs and KDM3 inhibitors. CBA-1 is a specific and potent KDM3A inhibitor. As backup candidates, two approved drugs were identified as CBA-1 analogs and KDM3A inhibitors. Based on the docking study (FIGS. 8A-B), the N and OH groups (red color in FIG. 12A) are critical in binding the Mn^2+ in KDM3A. […] A virtual screening was performed and several antibiotics that have similar structures were identified. Two of these antibiotics, clioquinol and nitroxoline (FIG. 12B), indeed inhibited the enzymatic activities of KDM3 (FIGS. 12C and D). These two drugs were tested in LS174T tumor xenograft model in SCID mice. […] Nitroxoline has been used in Europe for over 50 years as an antibiotic. It has anticancer effects, but the mechanism remains unclear.

LS174T CRC xenografts = test: LS174T tumor xenograft model in SCID mice; format: in vivo; conditions: 50 mg/kg, p.o.
Procedure: FIGS. 12A-E show images and graphs illustrating CBA-1 analogs from antibiotics. (A) Interaction of CBA-1 with Mn^2+. (B) Clioquinol (X=Cl; Y=I) and nitroxoline. (C-D) Inhibition of (C) KDM3A and (D) KDM3B enzymatic activities. (E) CBA-1 analogs (50 mg/kg, p.o.) inhibited LS174T CRC xenografts in SCID mice.
as §3

KDM3B = KDM3B (Homo sapiens, UniProt Q7LBC6); test: KDM3B enzymatic activity; format: biochemical; conditions: FIG. 12D
Chain of KDM3B (Q7LBC6 whole entry, the tested form may be a part): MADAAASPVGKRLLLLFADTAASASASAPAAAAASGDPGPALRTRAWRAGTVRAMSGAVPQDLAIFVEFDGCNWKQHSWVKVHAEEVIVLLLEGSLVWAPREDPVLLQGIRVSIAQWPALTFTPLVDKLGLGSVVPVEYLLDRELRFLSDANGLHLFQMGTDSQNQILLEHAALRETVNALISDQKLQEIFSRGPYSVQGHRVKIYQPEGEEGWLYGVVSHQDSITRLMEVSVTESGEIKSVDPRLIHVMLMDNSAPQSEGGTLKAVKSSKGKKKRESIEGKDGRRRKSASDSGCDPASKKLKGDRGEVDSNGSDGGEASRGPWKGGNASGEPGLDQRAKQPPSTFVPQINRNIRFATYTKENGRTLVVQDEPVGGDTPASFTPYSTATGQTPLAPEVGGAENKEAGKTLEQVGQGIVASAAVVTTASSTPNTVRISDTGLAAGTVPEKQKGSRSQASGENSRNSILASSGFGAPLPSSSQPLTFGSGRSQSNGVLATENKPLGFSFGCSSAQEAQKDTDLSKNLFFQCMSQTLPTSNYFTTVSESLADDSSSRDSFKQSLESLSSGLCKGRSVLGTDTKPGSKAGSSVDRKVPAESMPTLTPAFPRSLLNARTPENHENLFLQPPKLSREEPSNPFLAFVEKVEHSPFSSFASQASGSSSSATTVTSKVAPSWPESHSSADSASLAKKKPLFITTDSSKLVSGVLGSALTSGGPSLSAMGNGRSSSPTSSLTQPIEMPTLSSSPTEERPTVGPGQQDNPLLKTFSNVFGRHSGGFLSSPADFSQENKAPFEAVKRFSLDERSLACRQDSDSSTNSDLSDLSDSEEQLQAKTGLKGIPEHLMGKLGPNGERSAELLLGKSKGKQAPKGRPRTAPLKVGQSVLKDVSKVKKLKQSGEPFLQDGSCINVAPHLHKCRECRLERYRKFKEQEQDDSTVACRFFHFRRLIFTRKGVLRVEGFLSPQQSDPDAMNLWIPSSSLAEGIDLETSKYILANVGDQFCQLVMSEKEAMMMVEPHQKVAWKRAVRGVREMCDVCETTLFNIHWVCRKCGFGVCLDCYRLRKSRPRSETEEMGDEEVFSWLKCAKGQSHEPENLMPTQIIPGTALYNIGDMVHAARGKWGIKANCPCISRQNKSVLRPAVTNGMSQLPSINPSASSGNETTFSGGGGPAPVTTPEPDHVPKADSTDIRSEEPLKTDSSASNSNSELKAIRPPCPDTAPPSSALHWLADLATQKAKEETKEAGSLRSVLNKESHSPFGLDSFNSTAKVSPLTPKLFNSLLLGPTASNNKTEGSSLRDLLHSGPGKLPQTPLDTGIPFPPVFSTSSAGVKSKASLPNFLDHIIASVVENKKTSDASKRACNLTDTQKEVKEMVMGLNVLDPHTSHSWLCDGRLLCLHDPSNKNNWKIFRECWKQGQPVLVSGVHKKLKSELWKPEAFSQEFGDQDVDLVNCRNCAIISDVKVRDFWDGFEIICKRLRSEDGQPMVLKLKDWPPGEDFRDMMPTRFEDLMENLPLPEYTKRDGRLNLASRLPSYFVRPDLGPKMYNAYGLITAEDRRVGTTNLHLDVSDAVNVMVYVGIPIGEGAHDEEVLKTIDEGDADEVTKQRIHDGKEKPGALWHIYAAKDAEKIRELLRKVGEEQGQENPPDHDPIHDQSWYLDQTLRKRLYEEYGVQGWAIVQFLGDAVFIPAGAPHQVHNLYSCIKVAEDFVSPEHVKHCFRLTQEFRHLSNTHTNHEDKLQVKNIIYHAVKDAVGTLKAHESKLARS
Text: Other KDM3 members as CBA-1 targets. Inhibition of KDM3A by CBA-1 increased H3K9Me^2 and inhibited Wnt signaling; however, other KDM3 members may also regulate H3K9 methylation. For example, both KDM3B and KDM3C (JMJD1C) regulated Wnt signaling. Given the high similarity of their structures (FIG. 10A), particularly the JmjC domains, it is believed that CBA-1 would inhibit KDM3B and KDM3C as well. […] CBA-1 coordinated with Mn^2+ at a longer distance in KDM3B (3.9 Å) than the distance in KDM3A (2.8 Å) (FIGS. 8B and 10B). This could be one of the reasons that CBA-1 inhibited KDM3A better than KDM3B.
as §3

[1] = Homo sapiens, HEK-293T, Table 1, HEK293T TOPFlash, 25 mM LiCl after 6 h

Structure (SMILES): CCCC(=O)NC(c1ccco1)c1cc(Cl)c2cccnc2c1O (centres unmarked) [48M1]
- inhibition (Wnt signaling; [1]): 82%

Structure (SMILES): CCC(=O)NC(c1ccco1)c1cc(Cl)c2cccnc2c1O (centres unmarked) [58B6]
- inhibition (Wnt signaling; [1]): 73%

Structure (SMILES): CC(=O)NC(c1ccc(N(C)C)cc1)c1cc(Cl)c2cccnc2c1O (centres unmarked) [58D8]
- inhibition (Wnt signaling; [1]): 90%

Structure (SMILES): CCCC(=O)NC(c1ccc(N(C)C)cc1)c1cc(Cl)c2cccnc2c1O (centres unmarked) [58F8]
- inhibition (Wnt signaling; [1]): 88%

Structure (SMILES): CC(=O)NC(c1ccc(Cl)cc1)c1cc([N+](=O)[O-])c2cccnc2c1O (centres unmarked) [58H8]
- inhibition at 2.5 µM (Wnt signaling; Homo sapiens, HEK-293T, Table 1, HEK293T TOPFlash, 2.5 µM of each compound, 25 mM LiCl after 6 h): 80%

Structure (SMILES): O=C(O)CCNc1cc(N2CCc3ccccc3CC2)nc(-c2ccccn2)n1 [GSK-J1, reference compound]
- % Inhibition (Jarid1B (KDM5B)): 100%
- % Inhibition (UTX (KDM6A)): 100%

Structure (SMILES): Clc1ccc(N/N=C(\c2ccccc2)c2ccccn2)nc1 [JIB-04]
- % Inhibition (JMJD1A (KDM3A); Reference inhibitor): 100%

Structure (SMILES): CC(C)C(=O)NC(c1ccco1)c1ccc2cccnc2c1O (centres unmarked) [SD70, reference compound]
- Percent inhibition at 1 μM (Wnt signaling; 1 µM): 53.8%
- Percent inhibition at 1 μM (Wnt signaling; listed as VMS-7-175, 1 µM): 49.7%

Structure (SMILES): CCCC(=O)NC(c1ccc(N2CCC(C(=O)OCC)CC2)cc1)c1cc(Cl)c2cccnc2c1O (centres unmarked) [VMS-7-183]
- Percent inhibition at 1 μM (Wnt signaling): 85.6%

Structure (SMILES): Oc1c(I)cc(Cl)c2cccnc12 [clioquinol]
- tumor growth (LS174T CRC xenografts): inhibited tumor growth
- enzymatic activity of KDM3A (JMJD1A (KDM3A)): inhibited
- enzymatic activity of KDM3B (KDM3B): inhibited

Structure (SMILES): O=[N+]([O-])c1ccc(O)c2ncccc12 [nitroxoline]
- tumor growth (LS174T CRC xenografts): inhibited tumor growth
- enzymatic activity of KDM3A (JMJD1A (KDM3A)): inhibited
- enzymatic activity of KDM3B (KDM3B): inhibited
